Experimental data reported in US20210322622A1, “COMPOSITIONS AND METHODS FOR PREPARATION OF COMPOSITE POLYMER FILMS ON NON-CONDUCTING SUBSTRATES, INCLUDING BANDAGES, AND THEIR USE FOR TREATING WOUNDS” (The Johns Hopkins University, priority 2018, published 2021).

What was measured:
S. aureus strain Xen36 = experiment: MIC of XEN36 for each antibiotic; format: cell-based, Staphylococcus aureus; settings: Staphylococcus aureus, XEN36, read-out: MIC of XEN36
Description: S. aureus strain Xen36 (PerkinElmer, Waltham, Mass.) previously derived from the clinical bacteremia isolate ATCC 49525 (Wright) was used in all experiments. (Francis et al., 2000). […] (Francis et al., 2000). Xen36 was prepared for inoculation as previously described. (Niska et al., 2013; Pribaz et al. (2012)).

[1] = tested on: S. aureus bioluminescent strain Xen36; experiment: Mouse model of prosthetic joint infection (PJI): in vivo bioluminescence imaging and CFU; set-up: species or system mice; settings: intravenous prophylaxis 110 mg/kg at −1 and 16 hours
Excerpt: A previously established mouse model of a prosthetic joint infection (PJI) (Pribaz et al., 2012) was used to evaluate the efficiencies of the composite coatings in providing sustained in situ release and in vivo antimicrobial activity (FIG. 5A, FIG. 5B, FIG. 5C, FIG. 5D, FIG. 5E, FIG. 5F, FIG. 5G, FIG. 5H, FIG. 5I, FIG. 5J, FIG. 5K, and FIG. 5L). A medical-grade titanium K-wire (0.5 mm in diameter, 9 mm in length) coated with PLGA/PCL fiber coating ± antibiotics was surgically placed into the right distal femur of mice. Briefly, a medial parapatellar arthrotomy on the right knee was performed with lateral displacement of the quadriceps-patellar complex. […]
Noninvasive and longitudinal measurements of the bacterial burden were performed using in vivo bioluminescence imaging of the bioluminescent signals from live and actively metabolizing Xen36 bacteria at the site of infection in the post-operative knee joints of anesthetized mice over a 2-week course of infection using the IVIS Lumina III in vivo imaging system (PerkinElmer) on days 0, 1, 3, 5, 7, and 14. Data are presented on a color scale overlaid on a grayscale photograph of mice and quantified as maximum radiance (photons/second/cm^2/steradian) within a circular region of interest (1×10^3 pixels) using Living Image software. […]

[2] = In vitro release of antibiotics from PLGA/PCL composite coatings on titanium K-wires (HPLC); format: physicochemical; settings: stored coated pins, two-week in vitro release
Description: The release rate of the polymer composite film was measured by HPLC. Drug release studies were conducted using coated pins created with the same loading parameters as those used for later in vivo testing (10% (w/w) drug combinations) electrospun for 60 seconds at injection rates of 0.5 mL/h from each needle. Release rate of antibiotics from the composite polymer coating was characterized by placing coated pins in 200 μL pH 7.4 PBS buffer and incubating at 37° C. in an aluminum film-covered incubator to prevent possible light-induced drug degradation. Release media was changed at fixed time points over a period of two weeks and stored in a −20° C. freezer until analysis. Drug concentrations in release media for each day were determined via reverse-phase HPLC using a C-18 column in an Alliance HPLC system and Waters 2996 PDA detector. The mobile phase was a mixture of acetonitrile and water both mixed with 0.1% TFA acid, which was run at a gradient from (15%/85%) to (40%/60%) for a total runtime of 15 minutes per sample for the elution of Van/Rif and Lin/Rif drug loading groups. Elution of the Dap/Rif loading group was conducted using a mobile phase of (49%/51%) of acetonitrile and water both mixed with 0.1% TFA acid for a total run time of 11 minutes per sample. Concentrations of the drugs were quantified using wavelengths of 343 nm for Rif, 254 nm for Lin, 280 nm for Van and 223 nm for Dap using prepared standard curves for all three drugs. […] Quantification was performed through the derivatization of Gentamicin with ninhydrin at 95° C. for 15 minutes and detection with a Biotek Synergy2 plate reader.
(§1) Long-term efficacy of the antimicrobial activity was tested by storing electrospun pins at room temperature for 6 weeks, −20° C. for 6 weeks, and −80° C. for 8 months. Coated pins were protected from light during storage. These pins were then used in the same zone of inhibition assay as described hereinabove.
Drug release studies were conducted using coated pins created with the same loading parameters as detailed above. Release kinetics of antibiotics from the composite coating were characterized by placing coated pins in 200 μL of phosphate buffer saline (PBS, pH 7.4) at 37° C. Release media was changed daily over a period of two weeks and stored at −20° C. until analysis. Drug concentrations in release media were measured on days 1, 2, 3, 5, 7, 10 and 14 using a Waters Alliance 2690 HPLC system (Waters Corporation, Milford, Mass.) equipped with an Accucore RP-MS C18 column (100 mm×2.1 mm; Thermo Fisher Scientific) and a Waters 2996 PDA detector. The elution was carried out with a mobile phase of water and acetonitrile both mixed with 0.1% TFA at a flow rate of 1 mL/min at ambient temperature using a linear gradient elution program of 85% water to […] in 15 minutes. Concentrations of the drugs were quantified using wavelengths for Van (280 nm), Lin (254 nm), Dap (224 nm) and Rif (263 nm).

S. aureus = experiment: In vitro zone of inhibition assay of coated K-wires; format: cell-based, Staphylococcus aureus; settings: 6 weeks room temperature, 6 weeks −20° C., 8 months
Excerpt: A zone of inhibition assay was used as an additional assay to evaluate the in vitro release of antibiotic(s) from the composite coating. Tryptic soy agar bacterial plates were inoculated with S. aureus bacteria cells to yield a bacterial lawn after overnight culture. After bacterial inoculation and before culturing the plates, two identical titanium K-wires loaded with either 10 w/w % Lin, 10 w/w % Van, or 10 w/w % Dap alone, or in combination with Rif were placed in two separate areas on the plate. After culturing the plates at 37° C. for 24 hours, the antimicrobial activity of the eluded antibiotic(s) into the agar was measured as a zone of inhibition (diameter [mm]) of the bacterial growth around the K-wire.
as §1, with “hereinabove. These antimicrobial results were further confirmed with a two-week in vitro release study to determine release kinetics after storage.” for “hereinabove.”
Tryptic soy agar (TSA) bacterial plates were inoculated with S. aureus to yield a bacterial lawn after overnight culture. Before culturing the plates, two titanium K-wires each loaded with the same combination of antibiotics from each set were placed in two separate areas on the plate. After culturing at 37° C. for 24 hours, the zone of inhibition (ZOI) (diameter/mm) of bacterial growth were measured.

## CN[C@H](CC(C)C)C(=O)N[C@H]1C(=O)N[C@@H](CC(N)=O)C(=O)N[C@H]2C(=O)N[C@H]3C(=O)N[C@H](C(=O)N[C@H](C(=O)O)c4cc(O)cc(O)c4-c4cc3ccc4O)[C@H](O)c3ccc(c(Cl)c3)Oc3cc2cc(c3O[C@@H]2O[C@H](CO)[C@@H](O)[C@H](O)[C@H]2O[C@H]2C[C@](C)(N)[C@H](O)[C@H](C)O2)Oc2ccc(cc2Cl)[C@H]1O [Van, vancomycin]
S. aureus strain Xen36
  MIC: 0.5 µg/mL
[1]
  BLI signals: decreased BLI signals
  CFU from bone/joint tissue and implants: the infection was not cleared as CFU were readily detected
[2]
  release kinetics after storage: no difference in the release kinetics
S. aureus
  antimicrobial activity (zone of inhibition) after storage versus freshly prepared coatings: no significant loss of antimicrobial activity
